Key:
MCF-7 cells = test: Resazurin viability assay with or without folinic acid, MCF-7; assay type: cell-based, Human; settings: 72 h; for Relative Viability (%) – Inhibitor + FA Treatment: MCF-7, 10 μM + 300 μg/mL folinic acid; for Relative Viability (%) – Inhibitor Alone: MCF-7, 10 μM, relative to DMSO; for Rescue of viability impairment by folinic acid: MCF-7, 10 μM ± 300 μg/mL FA
Method: (§1) The incorporation and metabolism of resazurin to resorufin was used to monitor cell viability. MDA-MB-468, MCF7, and MDA-MB-231 cells were grown in 96-well plates with a total of 5000 cells per well in a total volume of 180 μL for 24 h, as described above. After 24 h of growth, cells were treated with increasing concentrations of compounds (0.0457–100 μM) for 72 h. A vehicle control was also performed. […] The volume of treatment added to each well was 20 μL. For folinic acid rescue experiments, 5000 cells were treated with 10 μM compound with or without 300 μg/mL folinic acid (Supelco). After 72 h of treatment, resazurin was added to a final concentration of 44 μM, and cells were incubated for an additional 4 h at 37 °C. The fluorescence of resorufin was monitored on a Synergy MX microplate reader (BioTek) using an excitation wavelength of 540 nm and an emission wavelength of 600 nm. Percent viability relative to the DMSO control was determined. Each treatment was performed in triplicate, and each individual experiment was repeated three times (n = 3).

MDA-MB-468 cells = test: Resazurin viability assay with or without folinic acid, MDA-MB-468; assay type: cell-based, Human; settings: 72 h; for Relative Viability (%) – Inhibitor + FA Treatment: MDA-MB-468, 10 μM + 300 μg/mL folinic acid; for Rescue of viability impairment by folinic acid: MDA-MB-468, 10 μM ± 300 μg/mL FA; for Relative Viability (%) – Inhibitor Alone: MDA-MB-468, 10 μM, relative to DMSO
Method: as §1

purified human DHFR = biological target: T1, purified human DHFR (Homo sapiens, UniProt P00374); test: DHFR enzymatic inhibition assay (NADPH absorbance at 340 nm); assay type: biochemical; settings: 200 nM DHFR, 137.5 μM DHF, 125 μM NADPH; n = 2; read-out: IC50
T1 construct: made in house; host or cells: E. coli BL21 (DE3) T1R pRARE2, pNIC-Bsa4 plasmid
T1 sequence (P00374 1-187): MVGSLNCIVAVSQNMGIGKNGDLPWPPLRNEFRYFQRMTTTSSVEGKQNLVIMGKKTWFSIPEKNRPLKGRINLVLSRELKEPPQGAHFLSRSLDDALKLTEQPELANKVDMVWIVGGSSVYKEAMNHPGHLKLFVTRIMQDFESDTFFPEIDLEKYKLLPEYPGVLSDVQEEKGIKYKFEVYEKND
Method: Working stocks of each inhibitor were created so that the final concentration of DMSO in each reaction was 2% in a final reaction volume of 100 μL. […] Reactions were prepared on ice in 384-well plates. […] Consumption of NADPH by measuring absorbance at 340 nm was used to monitor the progress of the reaction. Readings were taken every 5 min for 1 h at 37 °C using a Synergy MX microplate reader (BioTek).
Percent inhibition relative to the no-inhibitor control was determined using Equation (1). (1) % Inhibition=A340Inhibitor−A340DMSO Control/A340No DHFR−A340DMSO Control×100
Percent inhibition data were then fit to the four-parameter logistic model (Equation (2)) in GraphPad Prism 9.4.1 to determine half-maximal inhibitory concentrations (IC50):(2) y=Bottom+Top−Bottom/1+IC50/x^Hill slope where y represents the percent inhibition, x represents the concentration of inhibitor (μM), the bottom and top represent the bottom and top plateaus, and the Hill slope represents the slope factor. Each experiment contained duplicates of each sample, and each experiment was performed 2 times (n = 2). An ordinary one-way ANOVA was used to test for statistical significance between treatments.

leukemia = tested on: leukemia; design: method as in PMID 5479856, PMID 5479852, PMID 5241406; settings: early studies in the 1970s; cited from earlier work
[1] = tested on: T2, DHFR in MDA-MB-468 lysates; test: Lysate cellular thermal shift assay (CETSA) for DHFR; assay type: binding, Human; settings: 10 μM, MDA-MB-468 lysate, 45 °C for 3 min, DMSO at 37 °C = 100%
T2 construct: reactions containing 55 μg MDA-MB-468 lysate; endogenous in cells; host or cells: MDA-MB-468
Method: Trypsinized MDA-MB-468 cells were harvested by centrifugation at 200× g for 5 min and washed with PBS supplemented with EDTA-free PIC (Roche) and flash frozen for storage at −80 °C. Cells were lysed by resuspension in 60 μL PBS/PIC per 1 × 10^6 cells. Cells were lysed by three freeze-thaw cycles, where cells were frozen in an ethanol/dry ice bath for 3 min, immediately followed by incubation in a 37 °C water bath for 3 min. The insoluble fraction was removed by centrifugation at 20,000× g for 20 min at 4 °C. The supernatant containing the soluble lysate was removed and saved for subsequent steps.
After incubation, each reaction was transferred to a 1.5 mL tube and centrifuged at 20,000× g for 20 min at 4 °C to remove the insoluble proteins. After centrifugation, 18 μL of supernatant was carefully removed from each reaction, without disturbing any pelleted aggregates, and added to 4.5 μL of 5× SDS-PAGE loading buffer. 11 μL of each reaction was loaded onto a gel in duplicate, and proteins were detected by Western blot (as described below). Resulting band densities were fit to the Boltzmann equation to determine the melting temperature (Tm):(3) y=Bottom+Top−Bottom/1+e^Tm−x/Slope
To rescue the thermal degradation of DHFR by inhibitors, samples containing 10 μM inhibitor, 55 μg lysate, and 1% DMSO in a total volume of 28 μL in DHFR buffer were prepared in PCR tubes and incubated at room temperature for 20 min. Two DMSO-only controls were also prepared. Reactions containing inhibitors were then incubated at 45 °C for 3 min. One DMSO-only control was also heated at 45 °C for 3 min, and the other control was heated at 37 °C for 3 min. The soluble protein fraction was separated from the insoluble proteins by centrifugation, and proteins were separated by SDS-PAGE, as described above, and analyzed via Western blot, as described below. Each experiment was repeated 3 times.
(§2) Proteins were electrophoretically separated on a 10% gel, and proteins were transferred to a methanol-activated PVDF membrane using the Trans-Blot Turbo transfer system (Bio-Rad) for 7 min at 1.3 A and 25 V in Trans-Blot Turbo transfer buffer (Bio-Rad). Membranes were blocked with 5% skim milk w/v in TBS-T (20 mM Tris, 150 mM NaCl, 0.05% Tween-20) for 1 h at room temperature. […] The horseradish peroxidase (HRP)-linked anti-mouse IgG secondary antibody (NA931, Cytiva; 1:3000) was added for 1 h at room temperature in 5% skim milk w/v in TBS-T. Signal was detected by adding Immobilon Forte Western HRP Substrate (Millipore), and chemiluminescence was captured on a Sapphire Biomolecular Imager (Azure Biosystems). Band densities were determined using ImageJ (Fiji). The band intensity of DHFR was normalized to the thermostable loading control SOD1 [22].

[2] = tested on: MDA-MB468, MDA-MB-231, and MCF-7 breast cancer cell lines; test: Dose-response viability in breast cancer cell lines (statements not split by line); assay type: cell-based, Human; settings: 0–100 μM, 72 h
Method: as §1

MDA-MB-231 cells = test: Resazurin viability assay with or without folinic acid, MDA-MB-231; assay type: cell-based, Human; settings: 72 h; for Relative Viability (%) – Inhibitor + FA Treatment: MDA-MB-231, 10 μM + 300 μg/mL folinic acid; for Rescue of viability impairment by folinic acid: MDA-MB-231, 10 μM ± 300 μg/mL FA; for Relative Viability (%) – Inhibitor Alone: MDA-MB-231, 10 μM, relative to DMSO
Method: as §1

DHFR in MDA-MB-468 cells = tested on: T3, DHFR in MDA-MB-468 cells; test: DHFR accumulation assay (Western blot); assay type: cell-based, Human; settings: MDA-MB-468, 24 h, range 0.012–1 nM
T3 construct: reactions containing 55 μg MDA-MB-468 lysate; endogenous in cells; host or cells: MDA-MB-468
Method: Trypsinized MDA-MB-468 cells were seeded into 6-well plates at a density of 300,000 cells per 2 mL of media and allowed to adhere for 24 h. […] The final concentration of DMSO in each well was 1%. A DMSO-only control was also performed on each individual plate. Cells were then trypsinized, harvested by centrifugation at 200× g for 5 min at 4 °C, and washed once with PBS/PIC. Cell pellets were flash frozen using an ethanol/dry ice bath and stored at −80 °C prior to lysis. Each cell pellet was lysed as described above using 50 μL PBS/PIC per cell pellet. Samples were then analyzed by Western blot, as described below, using 30 μg lysate per lane. Band intensities of DHFR were normalized to the loading control SOD1 via densitometry using ImageJ (Fiji), and each DHFR band was normalized to the DMSO control. Fold-change in DHFR band intensity was plotted against inhibitor concentration (μM). Each experiment was performed two separate times as individual biological replicates (n = 2).
as §2

Row | IC50 (purified human DHFR) | Structure (SMILES) | Relative Viability (%) – Inhibitor + FA Treatment (MCF-7 cells) | Relative Viability (%) – Inhibitor Alone (MCF-7 cells) | Relative Viability (%) – Inhibitor + FA Treatment (MDA-MB-468 cells) | Rescue of viability impairment by folinic acid (MDA-MB-468 cells) | Relative Viability (%) – Inhibitor Alone (MDA-MB-468 cells) | Anti-leukemic activity in vivo (leukemia) | Normalized Band Density (%) of soluble DHFR [1] | Normalized Band Density (%) of soluble DHFR ([1]; listed as NSC123032) | Phenotypic response in viability dose-response [2] | Relative Viability (%) – Inhibitor + FA Treatment (MDA-MB-231 cells) | Rescue of viability impairment by folinic acid (MDA-MB-231 cells) | Relative Viability (%) – Inhibitor Alone (MDA-MB-231 cells) | Concentration giving notable accumulation of DHFR (DHFR in MDA-MB-468 cells) | Rescue of viability impairment by folinic acid (MCF-7 cells) | Normalized Band Density (%) of soluble DHFR ([1]; listed as NSC127153)
1 | 930 ± 240 nM | CC1(C)N=C(N)N=C(N)N1c1ccc(CCCCc2ccccc2)cc1 [compound 127153] | 56.75 ± 7.9% | 43.03 ± 13.9% | 23.92 ± 7.7% | failed to rescue | 17.90 ± 7.8% | promising anti-leukemic activity in vivo | greater than 100% | – | induce growth arrest at low concentrations and induce cell death at higher concentrations | 55.71 ± 12.7% | failed to rescue | 45.99 ± 10.6% | 0.33 nM | failed to rescue | 100.16 ± 36.4%
2 | 720 ± 240 nM | CC1(C)N=C(N)N=C(N)N1c1ccc(CCCCc2ccccc2)c(Cl)c1 [compound 128184] | 48.65 ± 6.9% | 35.94 ± 11.4% | 16.09 ± 10.4% | failed to rescue | 12.35 ± 8.6% | promising anti-leukemic activity in vivo | – | – | induce growth arrest at low concentrations and induce cell death at higher concentrations | 53.14 ± 12.7% | failed to rescue | 42.94 ± 9.7% | 0.33 nM | failed to rescue | –

Row | Structure (SMILES) | IC50 (purified human DHFR) | Relative Viability (%) – Inhibitor + FA Treatment (MCF-7 cells) | Relative Viability (%) – Inhibitor Alone (MCF-7 cells) | Relative Viability (%) – Inhibitor + FA Treatment (MDA-MB-468 cells) | Rescue of viability impairment by folinic acid (MDA-MB-468 cells) | Relative Viability (%) – Inhibitor Alone (MDA-MB-468 cells) | Anti-leukemic activity in vivo (leukemia) | Normalized Band Density (%) of soluble DHFR [1] | Normalized Band Density (%) of soluble DHFR ([1]; listed as NSC123032) | Phenotypic response in viability dose-response [2] | Relative Viability (%) – Inhibitor + FA Treatment (MDA-MB-231 cells) | Rescue of viability impairment by folinic acid (MDA-MB-231 cells) | Relative Viability (%) – Inhibitor Alone (MDA-MB-231 cells) | Concentration giving notable accumulation of DHFR (DHFR in MDA-MB-468 cells) | Rescue of viability impairment by folinic acid (MCF-7 cells) | Normalized Band Density (%) of soluble DHFR ([1]; listed as NSC127153)
3 | CC1(C)N=C(N)N=C(N)N1c1ccc(CCCCc2ccc(S(=O)(=O)F)cc2)cc1 [compound 123032] | 1170 ± 460 nM | 104.16 ± 6.3% | 81.94 ± 19.4% | 66.59 ± 2.1% | rescued in all but MDA-MB-468 cells | 71.41 ± 10.0% | promising anti-leukemic activity in vivo | greater than 100% | 121.24 ± 45.6% | little effect at low concentrations and cytotoxicity at higher concentrations | 103.45 ± 16.5% | largest amplitude of rescue | 57.55 ± 3.1% | – | – | –

Source: publication PMC9961069 (Metabolites, 2023)
